Key:
Test in all cases: SelectScreen kinase specificity survey
Type in all cases: biochemical
Conditions in all cases: estimated, abridged dose response curve, read-out: Kinase inhibitory activity EC50
STK3 (MST2) = molecular target: T1, STK3 (MST2) (Homo sapiens, UniProt Q13188)
T1 construct: purchased Invitrogen (SelectScreen platform)
Summary of the method: (§1)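 230-kinase panel; kinase-specific substrate plus optical reporter; ATP 100 micromolar; 5-point inhibitor titration; 4-parameter Hill fit gives estimated EC50.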

RET = molecular target: T2, RET (Homo sapiens, UniProt P07949)
T2 construct: purchased Invitrogen (SelectScreen)
Summary of the method: as §1

STK24 (MST3) = molecular target: T3, STK24 (MST3) (Homo sapiens, UniProt Q9Y6E0)
T3 construct: purchased Invitrogen (SelectScreen platform)
Summary of the method: as §1

PDGFRA (PDGFR alpha) = molecular target: T4, PDGFRA (PDGFR alpha) (Homo sapiens, UniProt P16234)
T4 construct: purchased Invitrogen (SelectScreen platform)
Summary of the method: as §1

PRKCG (PKC gamma) = molecular target: T5, PRKCG (PKC gamma) (Homo sapiens, UniProt P05129)
T5 construct: purchased Invitrogen, Inc. (SelectScreen platform)
Summary of the method: as §1

PRKCB1 (PKC beta I) = molecular target: T6, PRKCB1 (PKC beta I) (Homo sapiens, UniProt P05771)
T6 construct: purchased Invitrogen (SelectScreen platform)
Summary of the method: as §1

EPHA2 = molecular target: T7, EPHA2 (Homo sapiens, UniProt P29317)
T7 construct: purchased Invitrogen (SelectScreen service)
Summary of the method: as §1

CDK5/p25 = molecular target: T8, CDK5/p25 (Homo sapiens, UniProt Q00535)
T8 construct: purchased Invitrogen (SelectScreen platform)
Summary of the method: as §1

RPS6KA1 (RSK1) = molecular target: T9, RPS6KA1 (RSK1) (Homo sapiens, UniProt Q15418)
T9 construct: purchased Invitrogen, Inc. (SelectScreen platform)
Summary of the method: as §1

DYRK1A = molecular target: T10, DYRK1A (Homo sapiens, UniProt Q13627)
T10 construct: purchased Invitrogen (SelectScreen platform)
Summary of the method: as §1

LCK = molecular target: T11, LCK (Homo sapiens, UniProt P06239)
T11 construct: purchased Invitrogen (SelectScreen)
Summary of the method: as §1

JAK2 JH1 JH2 V617F = molecular target: T12, JAK2 JH1 JH2 V617F (Homo sapiens, UniProt O60674, V617F)
T12 construct: JAK2 JH1 JH2 V617F; purchased Invitrogen (SelectScreen platform)
Summary of the method: as §1

PLK1 = molecular target: T13, PLK1 (Homo sapiens, UniProt P53350)
T13 construct: purchased Invitrogen, Inc. (SelectScreen service)
Summary of the method: as §1

RPS6KB1 (p70S6K) = RPS6KB1 (p70S6K) (Homo sapiens, UniProt P23443)
Summary of the method: as §1

MST4 = molecular target: T14, MST4 (Homo sapiens, UniProt Q9P289)
T14 construct: purchased Invitrogen (SelectScreen platform)
Summary of the method: as §1

CDC42 BPA (MRCKA) = molecular target: T15, CDC42 BPA (MRCKA) (Homo sapiens, UniProt Q5VT25)
T15 construct: purchased Invitrogen (SelectScreen platform)
Summary of the method: as §1

PRKCI (PKC iota) = molecular target: T16, PRKCI (PKC iota) (Homo sapiens, UniProt P41743)
T16 construct: purchased Invitrogen, Inc. (SelectScreen platform)
Summary of the method: as §1

AURKA (Aurora A) = molecular target: T17, AURKA (Aurora A) (Homo sapiens, UniProt O14965)
T17 construct: purchased Invitrogen, Inc. (SelectScreen service)
Summary of the method: as §1

FRAP1 (mTOR) = molecular target: T18, FRAP1 (mTOR) (Homo sapiens, UniProt P42345)
T18 construct: purchased Invitrogen, Inc. (SelectScreen platform)
Summary of the method: as §1

PRKCB2 (PKC beta II) = molecular target: T19, PRKCB2 (PKC beta II) (Homo sapiens, UniProt P05771)
T19 construct: purchased Invitrogen (SelectScreen platform)
Summary of the method: as §1

FLT1 (VEGFR1) = molecular target: T20, FLT1 (VEGFR1) (Homo sapiens, UniProt P17948)
T20 construct: purchased Invitrogen, Inc. (SelectScreen platform)
Summary of the method: as §1

ABL1 G250E = molecular target: T21, ABL1 G250E (Homo sapiens, UniProt P00519, G250E)
T21 construct: purchased Invitrogen (SelectScreen platform)
Summary of the method: as §1

GSK3A (GSK3 alpha) = molecular target: T22, GSK3A (GSK3 alpha) (Homo sapiens, UniProt P49840)
T22 construct: purchased Invitrogen (SelectScreen platform)
Summary of the method: as §1

MET M1250T = molecular target: T23, MET M1250T (Homo sapiens, UniProt P08581, M1250T)
T23 construct: purchased Invitrogen (SelectScreen platform)
Summary of the method: as §1

PLK2 = molecular target: T24, PLK2 (Homo sapiens, UniProt Q9NYY3)
T24 construct: purchased Invitrogen, Inc. (SelectScreen service)
Summary of the method: as §1

ABL1 T315I = molecular target: T25, ABL1 T315I (Homo sapiens, UniProt P00519, T315I)
T25 construct: purchased Invitrogen (SelectScreen platform)
Summary of the method: as §1

BRAF = molecular target: T26, BRAF (Homo sapiens, UniProt P15056)
T26 construct: purchased Invitrogen, Inc. (SelectScreen platform)
Summary of the method: as §1

T20 sequence (P17948 27-1338): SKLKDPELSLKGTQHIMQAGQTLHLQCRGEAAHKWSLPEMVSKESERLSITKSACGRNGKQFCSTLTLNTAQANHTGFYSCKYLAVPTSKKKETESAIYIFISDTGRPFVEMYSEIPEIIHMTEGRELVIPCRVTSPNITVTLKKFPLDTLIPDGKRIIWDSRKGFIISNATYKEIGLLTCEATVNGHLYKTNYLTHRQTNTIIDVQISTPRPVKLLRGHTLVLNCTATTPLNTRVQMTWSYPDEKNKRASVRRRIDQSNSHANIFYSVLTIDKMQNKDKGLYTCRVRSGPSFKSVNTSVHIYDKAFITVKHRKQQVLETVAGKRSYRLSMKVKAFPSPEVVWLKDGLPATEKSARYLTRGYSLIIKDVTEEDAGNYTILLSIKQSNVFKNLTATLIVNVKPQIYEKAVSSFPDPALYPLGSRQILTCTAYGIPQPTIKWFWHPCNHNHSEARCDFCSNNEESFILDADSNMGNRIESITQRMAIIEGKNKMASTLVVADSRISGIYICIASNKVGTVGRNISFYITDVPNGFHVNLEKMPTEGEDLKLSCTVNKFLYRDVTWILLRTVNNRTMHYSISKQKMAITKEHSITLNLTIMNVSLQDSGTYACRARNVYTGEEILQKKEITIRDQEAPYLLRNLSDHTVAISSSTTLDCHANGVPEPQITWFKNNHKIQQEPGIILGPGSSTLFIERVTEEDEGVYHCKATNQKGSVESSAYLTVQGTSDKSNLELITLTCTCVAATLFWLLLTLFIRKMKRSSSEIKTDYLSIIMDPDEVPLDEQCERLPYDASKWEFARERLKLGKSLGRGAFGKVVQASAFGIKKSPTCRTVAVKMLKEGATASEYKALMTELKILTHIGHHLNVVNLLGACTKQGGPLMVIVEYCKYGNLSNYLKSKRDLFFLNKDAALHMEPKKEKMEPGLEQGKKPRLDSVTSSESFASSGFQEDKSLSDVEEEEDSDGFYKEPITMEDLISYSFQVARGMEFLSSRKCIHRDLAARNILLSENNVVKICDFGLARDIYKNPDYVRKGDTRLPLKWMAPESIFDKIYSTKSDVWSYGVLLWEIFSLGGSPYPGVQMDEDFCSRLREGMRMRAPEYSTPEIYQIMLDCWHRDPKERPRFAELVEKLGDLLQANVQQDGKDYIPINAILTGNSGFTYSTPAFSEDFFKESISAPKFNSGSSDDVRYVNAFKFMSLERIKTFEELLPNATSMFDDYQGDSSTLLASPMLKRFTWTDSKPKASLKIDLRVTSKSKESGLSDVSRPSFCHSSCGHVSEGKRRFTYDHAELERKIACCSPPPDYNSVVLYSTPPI
T23 sequence (P08581 25-1390 M1250T): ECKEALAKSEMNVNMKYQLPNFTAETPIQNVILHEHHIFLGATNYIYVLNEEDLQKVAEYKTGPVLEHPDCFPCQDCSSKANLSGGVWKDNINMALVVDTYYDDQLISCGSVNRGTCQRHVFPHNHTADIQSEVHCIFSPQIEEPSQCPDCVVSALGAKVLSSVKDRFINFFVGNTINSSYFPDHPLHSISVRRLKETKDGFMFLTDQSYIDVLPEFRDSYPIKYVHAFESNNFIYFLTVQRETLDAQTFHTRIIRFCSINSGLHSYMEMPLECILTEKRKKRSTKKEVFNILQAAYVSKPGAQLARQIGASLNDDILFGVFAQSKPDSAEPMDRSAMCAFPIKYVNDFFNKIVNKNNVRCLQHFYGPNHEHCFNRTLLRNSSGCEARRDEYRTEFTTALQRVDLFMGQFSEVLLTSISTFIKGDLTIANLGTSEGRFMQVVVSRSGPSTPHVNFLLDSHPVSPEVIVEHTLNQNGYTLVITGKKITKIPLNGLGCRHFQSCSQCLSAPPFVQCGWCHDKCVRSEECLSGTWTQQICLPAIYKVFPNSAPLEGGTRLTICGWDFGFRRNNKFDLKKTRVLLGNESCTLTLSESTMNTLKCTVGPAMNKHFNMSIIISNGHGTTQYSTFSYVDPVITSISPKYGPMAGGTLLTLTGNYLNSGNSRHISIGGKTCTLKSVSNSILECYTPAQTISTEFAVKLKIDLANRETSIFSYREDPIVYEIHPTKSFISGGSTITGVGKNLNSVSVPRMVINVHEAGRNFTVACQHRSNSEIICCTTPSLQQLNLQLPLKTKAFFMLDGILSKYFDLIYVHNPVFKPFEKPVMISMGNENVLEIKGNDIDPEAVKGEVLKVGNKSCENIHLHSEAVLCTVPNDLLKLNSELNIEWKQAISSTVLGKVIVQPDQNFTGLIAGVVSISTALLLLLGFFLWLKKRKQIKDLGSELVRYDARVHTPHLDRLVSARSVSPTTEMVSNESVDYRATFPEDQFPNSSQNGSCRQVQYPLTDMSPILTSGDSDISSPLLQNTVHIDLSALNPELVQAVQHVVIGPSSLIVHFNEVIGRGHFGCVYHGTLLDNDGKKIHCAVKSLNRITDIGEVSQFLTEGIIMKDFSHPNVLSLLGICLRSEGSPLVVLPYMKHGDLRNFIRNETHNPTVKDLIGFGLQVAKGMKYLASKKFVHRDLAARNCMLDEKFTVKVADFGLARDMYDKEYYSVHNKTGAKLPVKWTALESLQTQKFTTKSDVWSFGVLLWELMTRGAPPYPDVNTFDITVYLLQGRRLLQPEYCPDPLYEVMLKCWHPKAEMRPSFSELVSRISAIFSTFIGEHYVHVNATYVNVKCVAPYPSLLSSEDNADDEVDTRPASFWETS
T7 sequence (P29317 24-976): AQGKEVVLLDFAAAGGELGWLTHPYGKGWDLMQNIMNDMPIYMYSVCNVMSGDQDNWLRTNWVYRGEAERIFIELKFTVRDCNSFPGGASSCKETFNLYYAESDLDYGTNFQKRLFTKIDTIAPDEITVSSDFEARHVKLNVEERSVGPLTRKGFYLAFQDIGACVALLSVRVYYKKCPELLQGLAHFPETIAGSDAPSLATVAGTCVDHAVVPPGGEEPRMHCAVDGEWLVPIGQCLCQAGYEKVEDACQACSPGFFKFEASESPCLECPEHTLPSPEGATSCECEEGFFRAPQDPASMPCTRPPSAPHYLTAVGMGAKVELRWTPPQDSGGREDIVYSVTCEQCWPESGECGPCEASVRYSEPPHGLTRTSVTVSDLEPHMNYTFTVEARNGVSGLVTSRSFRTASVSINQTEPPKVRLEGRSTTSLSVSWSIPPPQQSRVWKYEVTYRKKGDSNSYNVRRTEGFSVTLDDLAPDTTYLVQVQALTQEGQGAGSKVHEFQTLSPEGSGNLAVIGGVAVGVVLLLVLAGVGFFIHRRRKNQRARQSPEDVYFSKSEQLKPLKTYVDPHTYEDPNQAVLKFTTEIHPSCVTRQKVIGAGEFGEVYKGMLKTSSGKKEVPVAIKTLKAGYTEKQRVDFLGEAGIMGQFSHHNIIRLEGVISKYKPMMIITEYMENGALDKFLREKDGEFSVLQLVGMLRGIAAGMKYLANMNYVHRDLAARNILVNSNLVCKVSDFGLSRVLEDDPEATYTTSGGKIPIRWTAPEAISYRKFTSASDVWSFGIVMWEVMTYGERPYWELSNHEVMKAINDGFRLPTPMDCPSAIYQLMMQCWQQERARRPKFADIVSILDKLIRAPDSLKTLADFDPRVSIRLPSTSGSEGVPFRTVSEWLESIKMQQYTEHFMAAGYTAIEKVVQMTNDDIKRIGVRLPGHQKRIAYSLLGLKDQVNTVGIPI
T14 sequence (Q9P289 whole entry): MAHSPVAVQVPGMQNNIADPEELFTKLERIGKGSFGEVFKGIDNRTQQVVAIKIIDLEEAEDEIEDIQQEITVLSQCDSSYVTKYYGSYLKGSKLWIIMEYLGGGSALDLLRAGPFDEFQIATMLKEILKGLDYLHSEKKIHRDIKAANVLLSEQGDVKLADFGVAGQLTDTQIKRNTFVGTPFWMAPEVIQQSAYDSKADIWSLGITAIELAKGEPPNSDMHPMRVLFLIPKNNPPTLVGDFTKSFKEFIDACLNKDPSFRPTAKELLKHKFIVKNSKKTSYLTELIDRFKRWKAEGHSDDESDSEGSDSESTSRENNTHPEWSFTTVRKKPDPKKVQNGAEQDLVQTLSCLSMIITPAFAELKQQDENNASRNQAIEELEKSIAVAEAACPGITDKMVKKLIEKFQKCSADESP
T12 sequence (O60674 532-1132 V617F limits assumed): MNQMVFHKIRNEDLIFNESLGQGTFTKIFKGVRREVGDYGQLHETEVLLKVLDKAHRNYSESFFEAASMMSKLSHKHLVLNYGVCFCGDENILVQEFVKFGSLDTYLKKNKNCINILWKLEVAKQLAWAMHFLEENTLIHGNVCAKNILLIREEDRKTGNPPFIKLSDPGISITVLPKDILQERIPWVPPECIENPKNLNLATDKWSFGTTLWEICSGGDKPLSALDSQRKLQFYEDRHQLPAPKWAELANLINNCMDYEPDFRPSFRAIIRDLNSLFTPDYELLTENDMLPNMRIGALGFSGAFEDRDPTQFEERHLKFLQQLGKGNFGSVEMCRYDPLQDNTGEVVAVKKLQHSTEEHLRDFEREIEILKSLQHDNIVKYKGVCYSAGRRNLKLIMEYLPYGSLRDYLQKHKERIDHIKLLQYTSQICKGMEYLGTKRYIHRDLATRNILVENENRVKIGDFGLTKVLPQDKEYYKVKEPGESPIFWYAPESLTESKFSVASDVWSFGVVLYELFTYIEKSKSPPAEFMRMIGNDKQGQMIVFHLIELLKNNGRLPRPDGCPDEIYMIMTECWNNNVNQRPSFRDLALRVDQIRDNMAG
RPS6KB1 (p70S6K), sequence (P23443 91-352 limits assumed): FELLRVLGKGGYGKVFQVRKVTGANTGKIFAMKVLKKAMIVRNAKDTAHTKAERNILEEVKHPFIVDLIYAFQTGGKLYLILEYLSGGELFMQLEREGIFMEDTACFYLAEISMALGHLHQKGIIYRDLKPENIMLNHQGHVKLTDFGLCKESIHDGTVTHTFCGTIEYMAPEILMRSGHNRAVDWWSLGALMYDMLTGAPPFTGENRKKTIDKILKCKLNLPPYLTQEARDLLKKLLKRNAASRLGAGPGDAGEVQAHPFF

Row | SMILES | EC50 (STK3 (MST2)) | EC50 (RET) | EC50 (STK24 (MST3)) | EC50 (PDGFRA (PDGFR alpha)) | EC50 (PRKCG (PKC gamma)) | EC50 (PRKCB1 (PKC beta I)) | EC50 (EPHA2) | EC50 (CDK5/p25) | EC50 (RPS6KA1 (RSK1)) | EC50 (DYRK1A) | EC50 (LCK) | EC50 (JAK2 JH1 JH2 V617F) | EC50 (PLK1) | EC50 (RPS6KB1 (p70S6K)) | EC50 (MST4) | EC50 (CDC42 BPA (MRCKA)) | EC50 (PRKCI (PKC iota)) | EC50 (AURKA (Aurora A)) | EC50 (FRAP1 (mTOR)) | EC50 (PRKCB2 (PKC beta II)) | also measured
1 | CN(C)CCCNc1ccc2ncn3c4ccc5[nH]ncc5c4c(=O)c1c23 [Compound (IV)] | > 5 µM | 0.587 µM | 1.04 µM | 0.562 µM | > 5 µM | > 5 µM | > 5 µM | 1.58 µM | 1.74 µM | 0.468 µM | 0.345 µM | > 5 µM | > 5 µM | 2.37 µM | > 5 µM | > 5 µM | > 5 µM | > 5 µM | > 5 µM | > 5 µM | EC50 (FLT1 (VEGFR1)): > 5 µM; EC50 (ABL1 G250E): 4.05 µM; EC50 (GSK3A (GSK3 alpha)): 3.62 µM; EC50 (MET M1250T): > 5 µM; EC50 (PLK2): > 5 µM; EC50 (ABL1 T315I): > 5 µM; EC50 (BRAF): 1.44 µM
2 | CCN(CC)CCNc1ccc2ncn3c4ccc(O)cc4c(=O)c1c23 [Symadex, 5-(2-(diethylamino)ethylamino)-8-hydroxy-6H-imidazo[4,5,1-de]acridin-6-one, reference compound] | > 5 µM | 1.12 µM | 0.733 µM | 1.23 µM | 1.89 µM | > 5 µM | > 5 µM | > 5 µM | 2.07 µM | 0.708 µM | 0.824 µM | > 5 µM | > 5 µM | > 5 µM | 1.58 µM | > 5 µM | > 5 µM | > 5 µM | > 5 µM | > 5 µM | EC50 (FLT1 (VEGFR1)): > 5 µM; EC50 (ABL1 G250E): > 5 µM; EC50 (GSK3A (GSK3 alpha)): > 5 µM; EC50 (MET M1250T): > 5 µM; EC50 (PLK2): > 5 µM; EC50 (ABL1 T315I): > 5 µM; EC50 (BRAF): 4.45 µM

From patent publication US20100292231A1, “Indazole Compounds for Treating Inflammatory Disorders, Demyelinating Disorders and Cancers” (priority 2007, published 2010)
